# Source: patent US7326710B2, “Aralkyl formyl-alkyl piperazine derivatives and their uses as a cerebral nerve protective agent” (Shanghai Institute of Pharmaceutical Industry, priority 2002, dated 2008)
# What was measured:
# cerebral anoxia in mice = experiment: Anoxic anoxia experiment in mice (closed wide-mouth bottles with soda lime); format: in vivo, Male Kunming mice
# Method: Methods: Male Kunming mice were divided into 8 groups, 12 mice for each group. One group is injected subcutaneously with saline ([…], sc), other groups with ACEA1021 (NMDA receptor antagonist under clinical trial) or IV-23. 30 minutes after administration, the animals were put separately into wide-mouth bottles with soda lime, which more quickly closed. The survival time for each mice was recorded, and the group average of survival time was calculated and compared with the saline group.
# [1] = system: focal cerebral ischemia in rats; experiment: Temporary occlusion of the right MCA in rats caused by suture; format: in vivo; conditions: rats; 10 mg/kg; length of ischemia 6 hr
# Text: b. Temporary occlusion of the right MCA in rats caused by suture.
# [2] = system: focal cerebral ischemia in rats; experiment: Focal brain injury, occlusion of MCA induced by photochemical reaction; format: in vivo; conditions: rats, 2 mg/kg
# Method: a. Focal brain injury caused by photochemical induction of occlusion of the artery:
# The percentage of infarction was lowered by 52% at 24 hours after operation.
# [3] = system: anoxia induced by sodium nitrite in mice; experiment: Anti-cerebral anoxia in mice, anoxia induced by sodium nitrite; format: in vivo; conditions: mice, sodium nitrite 225 mg/kg ip, compound 20 mg/kg sc; for ILS at 20 mg/kg: Mus musculus, sc, read-out: Prolonging the survival duration (%)
# Method: The rates of the prolongation of 9 compounds (IV-2, 10, 23, 32, 34, 36, 39, 40, 41) were more than 50%, which indicated the effect of anti-cerebral anoxia. IV-23 and IV-2 prolonged the survival duration by 100% of the animals, showing remarkably protective action for cerebral anoxia. (Table 3)
# One model was established to test the time needed for mice to die because of anoxia caused by sodium nitrite (225 mg/kg, ip). IV-23 (20 mg/kg, sc) can prolong the time for 100%, indicating significant anti-cerebral anoxic anoxia activity.
# NMDA receptor = experiment: Maximum contraction of isolated guinea pig longitudinal ileum muscle preparations induced by L-Glu; conditions: for excitation: concentration, unit not given, direct excitation of the preparation; for Glu-like excited action: excite preparations directly and induce contraction
# Text: According to the literature (Luzzi, Br J Pharmacol, 95:1271, 1988), maximum contraction of isolated longitudinal ileomuscle preparations of guinea pig induced by L-Glu, were used to examine the activities of the compounds on the NMDA receptor.
# [4] = system: focal cerebral ischemia in rats; experiment: Focal cerebral ischemia in rats by occlusion of middle cerebral artery (MCA); format: in vivo; conditions: 20 mg/kg p.o.; for Neurological deficit 24 h: 24 h after operation
# Method: The focal ischemia rat model by occlusion of middle cerebral artery (MCA) was used to determine the protective effects of the compounds on focal cerebral ischemia. The infarct size after focal cerebral ischemia and the weight percentage of cerebral hemisphere were calculated to evaluate the compounds' effects on focal cerebral ischemia.
# [5] = system: global cerebral ischemia in rats; experiment: Global cerebral ischemia in rats, bilateral common carotid artery occlusion with exsanguine hypotension; format: in vivo; conditions: reperfusion after 10 min occlusion
# Text: The animal models of the bilateral common carotid artery occlusion with exsanguine hypotension in the rats were used to investigate the effect against global cerebral ischemia.
# Methods: The animals were administrated four compounds (IV-2, 23, 34, 36) orally for 3 days before the experiment. […]
# [6] = system: primary culture of rat cerebral cortical neuronal cells; experiment: Effect of NMDA on neurons, LDH activity in supernatant; format: cell-based; conditions: n = 12
# Text: Primary culture of rat cerebral cortical neuronal cells were used. […] This is further evidence that IV-23 is a new NMDA receptor antagonist, and has anti-cerebral ischemic injury functions as well.
# [7] = system: focal cerebral ischemia in rats; experiment: Focal cerebral infarction, electrical coagulation to occlude MCA; format: in vivo; design: The neurological deficit score After the operation / The neurological deficit score 24 h: scale not given here; conditions: Nimodipine, dose not given
# Method: a. The Focal Cerebral-Infarction of Using Electrical Coagulation to Occlude MCA:
# For the 5 mg/kg group, the percentage of the rat's infarct size was decreased, but the difference is not significant (p=0.098). The effect is not significant for the Nimodipine mg/kg.
# [8] = system: global cerebral ischemia-reperfusion injury in rats; experiment: Global cerebral ischemia-reperfusion in rats, four arteries reversible occlusion; format: in vivo; conditions: Nimodipine 1 mg/kg
# Text: The effect of IV-23 on cerebral ischemia-reperfusion in rats was studied using four arteries reversible occlusion by measuring the recovering time of the electroencephalogram and the righting reflex (a short time indicates a strong effect).
smiles,measurement,setting,value
"O=c1[nH]c2cc(Cl)c(Cl)c([N+](=O)[O-])c2[nH]c1=O [ACEA-1021, reference compound]",Average survival time (min)(means ± S.E.M.),cerebral anoxia in mice; 2.5 mg/kg sc,17.33 ± 1.18 min
same,Average survival time (min)(means ± S.E.M.),cerebral anoxia in mice; 5 mg/kg sc,18.20 ± 0.82 min
same,Average survival time (min)(means ± S.E.M.),cerebral anoxia in mice; 10 mg/kg sc,19.47 ± 1.17 min
same,Average survival time (min)(means ± S.E.M.),cerebral anoxia in mice; 20 mg/kg sc,20.04 ± 1.38 min
same,ED50,"cerebral anoxia in mice; Mus musculus, sc, survival time in anoxic anoxia",29.2 mg/kg
same,Percent of volume (Means ± SEM),[1],12.73 ± 1.24%
same,Necrotic percent (%),[2],17 ± 2 %
same,Score of praxiology After operation,[2],9.5 ± 0.5
same,Weight of necrotic area,[2],0.12 ± 0.02 g
same,Score of praxiology 24 h,[2]; 24 h,7.1 ± 1.9
"O=C(CN1CCN(CC(=O)c2ccc([N+](=O)[O-])cc2)CC1)c1ccccc1 [IV-11, N^1-phenacyl-N^4-(4-nitrophenacyl) piperazine]",ILS at 20 mg/kg,[3],2%
same,excitation,NMDA receptor,10^−5
same,Glu-like excited action,NMDA receptor,could excite preparations directly
"COc1ccc2cc(C(=O)C(C)N3CCN(CC(=O)c4ccccc4)CC3)ccc2c1Cl (stereo not drawn) [IV-20, N^1-phenacyl-N^4-[1-(5-chloro-6-methoxy-2-naphthoyl)ethyl]piperazine]",Infarct volume,[4],0.14 ± 0.04 g
same,Neurological deficit After operation,[4],9.5 ± 0.6
same,Percentage of infarct volume (%),[4],18.80 ± 5.61 %
same,Neurological deficit 24 h,[4],8.8 ± 1.3
"O=C(CN1CCN(CC=Cc2ccccc2)CC1)NCc1ccccc1 [IV-21, N1-[2-(benzylamino)-2-oxo-ethyl]-N^4-cinnamyl piperazine]",ILS at 20 mg/kg,[3],33%
same,Infarct volume,[4],0.12 ± 0.07 g
same,Neurological deficit After operation,[4],9.8 ± 0.5
same,Percentage of infarct volume (%),[4],15.53 ± 8.27 %
same,Neurological deficit 24 h,[4],6.8 ± 2.5
"O=C(CN1CCN(S(=O)(=O)Cc2ccc(F)cc2F)CC1)c1ccccc1 [IV-22, N^1-phenacyl-N^4-(2,4-difluorobenzylsulfonyl) piperazine]",ILS at 20 mg/kg,[3],26%
same,Infarct volume,[4],0.10 ± 0.02 g
same,Neurological deficit After operation,[4],9.6 ± 0.9
same,Neurological deficit 24 h,[4],7.4 ± 2.4
"COc1ccc2cc(C(=O)C(C)N3CCN(CC(=O)NCc4ccccc4)CC3)ccc2c1Cl (stereo not drawn) [IV-33, N^1-[1-(5-chloro-6-methoxy-2-naphthoyl)ethyl]-N^4-[2-(benzylamino)-2-oxo-ethyl] piperazine]",Infarct volume,[4],0.12 ± 0.04 g
same,Neurological deficit After operation,[4],9.6 ± 0.6
same,Neurological deficit 24 h,[4],8.4 ± 1.5
"O=C(c1ccc([N+](=O)[O-])cc1)N1CCN(CC(O)c2ccccc2)CC1 (stereo not drawn) [IV-35, N^1-(4-nitrobenzoyl)-N^4-(2-phenylethyl-2-ol) piperazine]",Prolonging the survival duration (%),[3],42%
same,excitation,NMDA receptor,3 × 10^−5
same,Glu-like excited action,NMDA receptor,could excite preparations directly
"O=C(CN1CCN(CC(O)c2ccccc2)CC1)c1ccccc1 (stereo not drawn) [IV-36, N^1-phenacyl-N^4-(2-phenylethyl-2-ol) piperazine]",Recovery time of EEG,[5]; 20 mg/kg orally for 3 days,20.10 min
"CN[C@H](CC(=O)O)C(=O)O [NMDA, N-methyl-D-aspartate]",LDH activities (U/g protein) (mean ± SEM),[6]; NMDA 0.1 mmol/L,1.51 ± 0.25 U/g protein
same,LDH activities (U/g protein) (mean ± SEM),[6]; NMDA 0.5 mmol/L,1.63 ± 0.19 U/g protein
same,LDH activities (U/g protein) (mean ± SEM),[6]; NMDA 1 mmol/L,1.74 ± 0.17 U/g protein
same,LDH activities (U/g protein) (mean ± SEM),[6]; NMDA 2 mmol/L,2.38 ± 0.31 U/g protein
"COCCOC(=O)C1=C(C)NC(C)=C(C(=O)OC(C)C)C1c1cccc([N+](=O)[O-])c1 (stereo not drawn) [Nimodipine, reference compound]",Recovery time of EEG,[5]; Nimodipine 1 mg/kg positive control,13.49 ± 5.55 min
same,Infarct volume,[4],0.188 ± 0.013 g
same,Neurological deficit After operation,[4],9.3 ± 1.7
same,Neurological deficit 24 h,[4],9.0 ± 4.1
same,The neurological deficit score 24 h,[7],8.3 ± 2.0
same,The neurological deficit score After the operation,[7],9.7 ± 0.5
same,The percentage of infarction (%),[7],20.5 ± 6.8 %
same,The weight of infarct area,[7],0.15 ± 0.05 g
same,Time for electroencephalogram to disappear(S),[8],396.0 ± 559.8^Δ S
same,Time for electroencephalogram to recover (S),[8],3264.0 ± 336.4^Δ S
same,Time for righting reflex to recover (S),[8],1284.0 ± 1319.8^Δ S
